In paper PMC1971749, “The effects of gonadotrophin releasing hormone analogues in prostate cancer are mediated through specific tumour receptors” (British Journal of Cancer, 1990):
Read-outs that look alike come from different tables or passages of the source.

Key:
[1] = test system: GnRH binding sites of LNCaP cells; assay: GnRH analogue binding to LNCaP cells (displacement of 125I-buserelin); set-up: species or system human; details: for displacement of labelled buserelin: specificity test, structurally unrelated peptides, LNCaP
Description: (§1) Br.~~~~ ~ ~ J. Cace (19) 62 969 ?amla resLd,19 The effects of gonadotrophin releasing hormone analogues in prostate cancer are mediated through specific tumour receptors A. Qayuml, W. Gullick2, R.C. Clayton3, K. Sikora' & J. Waxman' 'Department of Clinical Oncology and 2ICRF Oncology Group, Royal Postgraduate Medical School, and 3Clinical Endocrinology, MRC, Northwick Park Hospital, London, UK. Summary We have investigated the possibility of a direct regulatory effect of gonadotrophin releasing hormone (GnRH) analogues on prostatic cancer cell growth. Here we report high affinity binding (Kd = 50 nM) of a GnRH analogue resulting in biphasic growth modulation of the human androgen-sensitive prostatic cancer cell line LNCaP. […] Seventy-six human benign and malignant tumours were assayed following surgical resection. […] Cancer of the prostate is the second most common cause of malignancy among males. The treatment of prostatic cancer aims to reduce serum androgen concentrations. The long- acting agonist analogues of GnRH have been recently intro- duced as effective alternative therapies to orchiectomy and oestrogen treatment (Waxman, 1987). Their effect on andro- gen dependent cell growth is thought to be mediated through down-regulation of the pituitary-gonadal axis. GnRH agon- ist treatment leads to an initial increase in the serum levels of LH, FSH and androgens and this may be accompanied by tumour flare (Waxman et al., 1985). However, this exacerba- tion of symptoms is not temporally related to changes in serum LH, FSH and androgen concentrations. The differ- ences in the timing of these biochemical and clinical phenomena raises the possibility of a direct effect of GnRH analogues at the level of the tumour. This present study explored the direct effects of GnRH analogues on prostatic cancer cells in culture and in vivo. GnRH analogue binding to human prostatic cancer cells grown in culture and biopsy samples was first examined. GnRH binding sites were characterised in cell lines and in human tumours. The biological effects of GnRH on prostatic cancer cells and a possible autocrine stimulatory role of GnRH-like peptides were investigated. Materials and methods Cell culture The human androgen-sensitive prostatic cancer cell line LNCaP (isolated from lymph node metastasis; Horoszewicz et al., 1983) and the human androgen-insensitive prostatic cell line DU145 (isolated from brain metastasis) were obtained from the American Type Culture Collection. Cul- tures were maintained in exponential growth in RPMI 1640 medium containing 10% charcoal stripped fetal calf serum and 5 fig ml-I insulin. The fetal calf serum used in cell cul- ture medium was treated with dextran and charcoal to remove steroids. Charcoal 0.25% and dextran-T70 0.025% were added to the serum, which was heated at 56'C for 2 h and then centrifuged at 4,000 r.p.m. for O min. The pellet was discarded, serum was filtered through 0.4 ltm filters and used in culture medium. The treated serum was assayed for steroid hormones by the Hammersmith Hospital Endocrine Laboratories and found to be steroid free, Cultures were incubated at 37?C in a humidified atmosphere containing 5% CO2 and subcultured weekly using 0.1% EDTA to remove the cells from the plastic substratum. Under these conditions, the doubling times of DU145 and LNCaP cells were 72 and 144 h respectively. GnRH binding assays Exponentially growing cells were harvested with 0.1% EDTA, washed twice with PBS and counted using 0.2% trypan blue as an indicator. The cells were then resuspended in assay buffer (10 mM Tris-HCI pH 7.6, 1 mM dithiothreitol, 0.3% bovine serum albumin). One million cells per tube were incubated with 200,000 c.p.m. (0.1 nM) of 25I buserelin (125J_ D-Ser (TBU)6-LHRH-ethylamide) (Hoechst AG, Frankfurt), (specific activity 53,000 kBq;bg-') with or without varying concentrations of unlabelled buserelin (O.1-100 nM). Non- specific binding was estimated in the presence of 10 IM unlabelled buserelin. […]

LNCaP cells = assay: Biological response study, growth of LNCaP cells; format: cell-based, human
Description: as §1, with “Under these conditions, the doubling times of DU145 and LNCaP cells were 72 and 144 h respectively.” left out, “indicator.” for “indicator. The cells were then resuspended in assay buffer (10 mM Tris-HCI pH 7.6, 1 mM dithiothreitol, 0.3% bovine serum albumin). One million cells per tube were incubated with 200,000 c.p.m. (0.1 nM) of 25I buserelin (125J_ D-Ser (TBU)6-LHRH-ethylamide) (Hoechst AG, Frankfurt), (specific activity 53,000 kBq;bg-') with or without varying concentrations of unlabelled buserelin (O.1-100 nM). Non- specific binding was estimated in the presence of 10 IM unlabelled buserelin.”

DU145 cells = assay: Biological response study, growth of DU145 cells; format: cell-based, human; details: DU145 (androgen-insensitive) cells, 10 days
Description: (§2) Br.~~~~ ~ ~ J. Cace (19) 62 969 ?amla resLd,19 The effects of gonadotrophin releasing hormone analogues in prostate cancer are mediated through specific tumour receptors A. Qayuml, W. Gullick2, R.C. Clayton3, K. Sikora' & J. Waxman' 'Department of Clinical Oncology and 2ICRF Oncology Group, Royal Postgraduate Medical School, and 3Clinical Endocrinology, MRC, Northwick Park Hospital, London, UK. Summary We have investigated the possibility of a direct regulatory effect of gonadotrophin releasing hormone (GnRH) analogues on prostatic cancer cell growth. Here we report high affinity binding (Kd = 50 nM) of a GnRH analogue resulting in biphasic growth modulation of the human androgen-sensitive prostatic cancer cell line LNCaP. […] Seventy-six human benign and malignant tumours were assayed following surgical resection. […] Cancer of the prostate is the second most common cause of malignancy among males. The treatment of prostatic cancer aims to reduce serum androgen concentrations. The long- acting agonist analogues of GnRH have been recently intro- duced as effective alternative therapies to orchiectomy and oestrogen treatment (Waxman, 1987). […] GnRH binding assays Exponentially growing cells were harvested with 0.1% EDTA, washed twice with PBS and counted using 0.2% trypan blue as an indicator. […]

[2] = test system: GnRH binding sites of DU145 cells; assay: GnRH analogue binding to DU145 cells (displacement of 125I-buserelin); set-up: species or system human
Description: as §2

[3] = GnRH radioimmunoassay, specificity; details: cross-reactivity control, Figure 1; sensitivity 0.25 fmol per tube
[4] = 100-fold excess of GnRH antagonist over buserelin, cell numbers, triplicate, representative experiment (Figure 6)

D-Ser (TBU)6-LHRH-ethylamide [buserelin]
Kd ([1]; Scatchard transformation of the same data, single class of binding sites in LNCaP cells, read-out: Kd (Scatchard plot)): 40 nM
binding sites per cell ([1]; Scatchard transformation, LNCaP cells): 35,000 binding sites per cell
Kd ([1]; intact LNCaP cells (10^6 per tube), 125I buserelin 0.1 nM, unlabelled buserelin, Tris-HCl pH 7.6, 3 h, 4 C, triplicate, representative experiment, read-out: Kd of GnRH analogue binding in LNCaP): 50 nM
growth of the cells at higher concentrations (LNCaP cells; 10 days, GnRH analogue 100 nM): slightly inhibited
stimulation of growth relative to control cultures, total DNA content (LNCaP cells; 10 days, buserelin 1-10 nM, 10% charcoal stripped FCS, Burton's method, three experiments each in triplicate): ≤ 140%
stimulation of growth relative to control cultures, cell numbers (LNCaP cells; 10 days, buserelin 1-10 nM, 10% charcoal stripped FCS, three experiments each in triplicate): ≤ 140%
response to buserelin treatment (growth) (DU145 cells): did not show any response
response to buserelin treatment (growth) (DU145 cells; listed as GnRH analogue): without any biological response
Kd ([2]; 125I buserelin 0.1 nM, 3 h, 4 C, pH 7.6, abstract, read-out: Kd, low-affinity binding in DU145): 10000 nM

N[C@@H](CSSC[C@H](N)C(=O)Nc1ccc([N+](=O)[O-])cc1)C(=O)Nc1ccc([N+](=O)[O-])cc1 [L-cystine-bis-(4-nitroanilide)]
reduction of specific binding of buserelin by protease substrate ([1]; LNCaP cells, protease substrate final concentration 10 µM (printed "10 gsM")): 28%
reduction of specific binding of buserelin by protease substrate ([2]; protease substrate final concentration 10 µM (printed "10 gsM")): 68%

D-pGlul, D-Phe2, D- Trp3' 6) GnRH [GnRH antagonist]
block of inhibitory effect of buserelin (LNCaP cells; [4]): partially blocked
block of stimulatory effect of buserelin (LNCaP cells; [4]): partially blocked

oxytocin: structurally unrelated peptide
displacement of labelled buserelin [1]: did not displace labelled buserelin
GnRH-immunoreactivity in GnRH-RIA [3]: did not show any GnRH-immunoreactivity

bradykinin: structurally unrelated peptide (RPPGFSPFR; Bradykinin; UniProt P01042 381-389, looked up)
displacement of labelled buserelin [1]: did not displace labelled buserelin
GnRH-immunoreactivity in GnRH-RIA [3]: did not show any GnRH-immunoreactivity
